Data on 28 compounds can be found in patent publication US6362208B1, “Anilide compounds and drugs containing the same” (Kowa Company, Ltd., priority 1997, dated 2002).

For one series, the target named is T1, ACAT in J774 cells (Mus musculus, UniProt Q61263).
T1 construct: J774 cells or HepG2 cells were inoculated on a 24-well plate; endogenous in cells; host or cells: J774 cells
T1 sequence (Q61263 1-540): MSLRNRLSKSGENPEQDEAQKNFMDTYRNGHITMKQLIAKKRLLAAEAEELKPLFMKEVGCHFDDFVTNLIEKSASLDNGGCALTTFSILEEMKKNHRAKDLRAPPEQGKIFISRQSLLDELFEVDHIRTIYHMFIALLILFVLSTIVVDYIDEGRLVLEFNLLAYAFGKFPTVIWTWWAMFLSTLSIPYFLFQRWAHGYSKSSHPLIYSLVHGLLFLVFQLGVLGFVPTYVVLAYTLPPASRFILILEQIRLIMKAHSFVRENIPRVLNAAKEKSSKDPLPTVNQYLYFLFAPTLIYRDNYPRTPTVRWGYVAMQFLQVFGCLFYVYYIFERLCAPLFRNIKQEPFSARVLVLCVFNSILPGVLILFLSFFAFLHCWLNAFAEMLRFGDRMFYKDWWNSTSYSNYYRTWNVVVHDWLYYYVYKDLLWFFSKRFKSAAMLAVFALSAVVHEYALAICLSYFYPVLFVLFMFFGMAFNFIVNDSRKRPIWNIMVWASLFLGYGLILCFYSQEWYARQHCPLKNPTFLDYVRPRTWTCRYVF
Description: ACAT inhibitory action (anti-foaming action) in J774 cells, cholesterol ester formation. The format is cell-based. To be noted: for IC50: J774 cells, 10 μg/ml 25-OH cholesterol, 18-hr culturing, cholesterol ester per protein, read-out: IC50 (μM) of J774-derived enzyme; for IC50 (HepG2)/IC50 (J774): ratio HepG2 / J774. As for the experimental part: (§1) J774 cells or HepG2 cells were inoculated on a 24-well plate; J774 cells and HepG2 cells were cultured in DMEM and MEM culture broths (each of the broths containing 10% calf fetus serum), respectively, in a 5% CO2 incubator at 37° C. for 24 hours. […] After discarding the culture media, the resulting cultures were rinsed twice with PBS and extracted with 1.5 ml of hexane:isopropanol (3:2), for concentration and drying. The extracts were dissolved in isopropanol containing 0.2 ml of 10% Triton X-100, to assay total cholesterol (TC) and free cholesterol (FC) by using Cholesterol E Test WAKO (manufactured by Wako Pure Chemicals, Co.) and Free Cholesterol E Test Wako (manufactured by Wako Pure Chemicals, Co.). […] Based on the difference between TC and FC, cholesterol ester was calculated per protein, to determine IC50, compared with the calculated control IC50 value.

The next series has as its system ACAT in HepG2 cells. Description: ACAT inhibitory action in HepG2 cells, cholesterol ester formation. The format is cell-based. To be noted: 10 μg/ml 25-OH cholesterol, 18-hr culturing, cholesterol ester per protein, read-out: IC50 (μM) of HepG2-derived enzyme. As for the experimental part: as §1

The IC50 is the point on the concentration scale where inhibition reaches its midpoint. One may read the melting point as the temperature of the solid-liquid transition.

Turning to `CC(C)c1cccc(C(C)C)c1NC(=O)C(C)(C)CCCOc1ccc2c(c1)C=C(c1nccn1C)C(CCc1ccc(F)cc1)O2` (stereo not shown) [Control 1, 5-[2-(2-(4-fluorophenyl)ethyl)-3-(1-methyl-1H-imidazol-2-yl)-2H-1-benzopyran-6-yl]oxy-2,2-dimethyl-N-(2,6-diisopropylphenyl)pentanamide, reference compound], at ACAT in J774 cells, the IC50 stood at 0.56 µM and the “IC50 (HepG2)/IC50 (J774)” value is listed as 9.5. Take `CC(C)c1cccc(C(C)C)c1NC(=O)CCCCCSc1nc2ncccc2o1` [Example 1, 6-(oxazolo[4,5-b]pyridin-2-ylthio)-N-(2,6-diisopropylphenyl)hexanamide]: the melting point lay within 94 to 95 °C. Besides, at ACAT in J774 cells, the IC50 was determined as 1.3 µM and the “IC50 (HepG2)/IC50 (J774)” value worked out at 3.2. In the series on ACAT in HepG2 cells, the IC50 worked out at 4.1 µM. As for `CC(C)c1cccc(C(C)C)c1NC(=O)CCCCCSc1nc2cnccc2[nH]1` [Example 6, 6-(imidazolo[4,5-c]pyridin-2-ylthio)-N-(2,6-diisopropylphenyl)hexanamide], the melting point lay within 96 to 98 °C. On ACAT in J774 cells, the IC50 turned out to be 10 µM and the “IC50 (HepG2)/IC50 (J774)” value is listed as 1.0. In the series on ACAT in HepG2 cells, the IC50 worked out at 10 µM.

`CC(C)c1cccc(C(C)C)c1NC(=O)CCCCCNc1nc2cccnc2o1` [Example 20, 6-(oxazolo[5,4-b]pyridin-2-ylamino)-N-(2,6-diisopropylphenyl)hexanamide] showed a melting point of 177 to 178 °C.

`CC(C)c1cccc(C(C)C)c1NC(=O)CCCCCSc1nc2cccnc2s1` [Example 21, 6-(thiazolo[5,4-b]pyridin-2-ylthio)-N-(2,6-diisopropylphenyl)hexanamide] returned a melting point of 137 to 138 °C. Compound `CC(C)c1cccc(C(C)C)c1NC(=O)CCCCCSc1nc2c(CN(C)C)cccc2o1` [Example 27, 6-[4-(N,N-dimethylaminomethyl)benzoxazol-2-ylthio]-N-(2,6-diisopropylphenyl)hexanamide] had a melting point of 113 to 115 °C. In addition, the IC50 on ACAT in J774 cells amounted to 1.31 µM.

Turning to `CC(C)c1cccc(C(C)C)c1NC(=O)CCCCCSc1nc2c(N(C)C)cccc2o1` [Example 28, 6-(4-N,N-dimethylaminobenzoxazol-2-ylthio)-N-(2,6-diisopropylphenyl)hexanamide], the melting point was in the range of 129 to 130 °C. In addition, on ACAT in J774 cells, the IC50 was 0.47 µM and the “IC50 (HepG2)/IC50 (J774)” value is given as 0.9. In addition, the IC50 in the series on ACAT in HepG2 cells is 0.42 µM. Consider `CC(C)c1cccc(C(C)C)c1NC(=O)CCCCCSc1nc2cc(OCc3ccccc3)ccc2o1` [Example 29, 6-(5-benzyloxybenzoxazol-2-ylthio)-N-(2,6-diisopropylphenyl)hexanamide], for which the melting point lay in the range of 102 to 104 °C. On ACAT in J774 cells, the IC50 is 0.26 µM and the “IC50 (HepG2)/IC50 (J774)” value was 7.3. In addition, the IC50 in the series with ACAT in HepG2 cells was found to be 1.9 µM.

For `COC(=O)c1ccc2oc(SCCCCCC(=O)Nc3c(C(C)C)cccc3C(C)C)nc2c1` [Example 34, 6-(5-methoxycarbonylbenzoxazol-2-ylthio)-N-(2,6-diisopropylphenyl)hexanamide], the melting point lay in the range of 104 to 106 °C. In addition, on ACAT in J774 cells, the IC50 was 0.6 µM and the “IC50 (HepG2)/IC50 (J774)” value is listed as 13.5. For the same compound, the IC50 with ACAT in HepG2 cells came to 8.15 µM. In the case of `CC(C)c1cccc(C(C)C)c1NC(=O)CCCCCSc1nc2cc(N(C)C)ccc2o1` [Example 38, 6-(5-N,N-dimethylaminobenzoxazol-2-ylthio)-N-(2,6-diisopropylphenyl)hexanamide], the melting point fell in the range of 130 to 132 °C. Moreover, at ACAT in J774 cells, the IC50 was determined as 1.83 µM. `COC(=O)c1ccc2nc(SCCCCCC(=O)Nc3c(C(C)C)cccc3C(C)C)oc2c1` [Example 40, 6-(6-methoxycarbonylbenzoxazol-2-ylthio)-N-(2,6-diisopropylphenyl)hexanamide] registered a melting point of 157 to 158 °C. Turning to `CC(C)c1cccc(C(C)C)c1NC(=O)CCCCCSc1nc2ccc(CO)cc2o1` [Example 42, 6-(6-hydroxymethylbenzoxazol-2-ylthio)-N-(2,6-diisopropylphenyl)hexanamide], the melting point lay in the range of 93 to 95 °C.

Turning to `CC(C)c1cccc(C(C)C)c1NC(=O)CCCCCSc1nc2ccc(CN(C)C)cc2o1` [Example 43, 6-[6-(N,N-dimethylaminomethyl)benzoxazol-2-ylthio]-N-(2,6-diisopropylphenyl)hexanamide], the melting point was 82 to 84 °C. On to `CC(C)c1cccc(C(C)C)c1NC(=O)CCCCCSc1nc2cccc(C(=O)O)c2o1` [Example 47, 6-(7-carboxybenzoxazol-2-ylthio)-N-(2,6-diisopropylphenyl)hexanamide], for which the melting point fell in the range of 175 to 177 °C. `CC(C)c1cccc(C(C)C)c1NC(=O)CCCCCSc1nc2cccc(CO)c2o1` [Example 48, 6-[7-hydroxymethylbenzoxazol-2-ylthio]-N-(2,6-diisopropylphenyl)hexanamide] came in with a melting point of 91 to 92 °C. With `CC(C)c1cccc(C(C)C)c1NC(=O)CCCCCSc1nc2cccc(CN(C)C)c2o1` [Example 49, 6-[7-(N,N-dimethylaminomethyl)benzoxazol-2-ylthio]-N-(2,6-diisopropylphenyl)hexanamide], the melting point lay within 102 to 104 °C. As to `CC(C)c1cccc(C(C)C)c1NC(=O)CCCCCSc1nc2cccc(N(C)C)c2o1` [Example 50, 6-(7-N,N-dimethylaminobenzoxazol-2-ylthio)-N-(2,6-diisopropylphenyl)hexanamide], the melting point fell in the range of 129 to 130 °C. Same read-out and setting: with `CC(C)c1cccc(C(C)C)c1NC(=O)CCCCCSc1nc2cccc(CN3CCOCC3)c2o1` [Example 51, 6-[7-(1-morpholino)methylbenzoxazol-2-ylthio]-N-(2,6-diisopropylphenyl)hexanamide] the figure was 117 to 118 °C. `CC(C)c1cccc(C(C)C)c1NC(=O)CCCCCSc1nc2cccc(-c3nnn[nH]3)c2o1` [Example 52, 6-[7-(tetrazol-5-yl)benzoxazol-2-ylthio)-N-(2,6-diisopropylphenyl)hexanamide]: the melting point was in the range of 218 to 220 °C. In turn, `COC(=O)c1ccc2nc(SCCCCCCCCC(=O)Nc3c(C(C)C)cccc3C(C)C)oc2c1` [Example 54, 9-(6-methoxycarbonylbenzoxazol-2-ylthio)-N-(2,6-diisopropylphenyl)nonanamide] returned a melting point of 122 to 124 °C. Turning to `COC(=O)c1cccc2nc(SCCCCCCCNC(=O)Nc3c(C(C)C)cccc3C(C)C)oc12` [Example 55, N-(2,6-diisopropylphenyl)-N′-[7-(7-methoxycarbonylbenzoxazol-2-ylthio)heptyl]urea], the melting point lay in the range of 179 to 181 °C. In the case of `COC(=O)c1cccc2nc([S+]([O-])CCCCCCCNC(=O)Nc3c(C(C)C)cccc3C(C)C)oc12` (stereo not shown) [Example 56, N-(2,6-diisopropylphenyl)-N′-[7-(7-methoxycarbonylbenzoxazol-2-ylsulfinyl)heptyl]urea], the melting point is 145 to 147 °C. Take `COC(=O)c1cccc2nc(SCCCCCC(=O)Nc3c(OC)cc(OC)cc3OC)oc12` [Example 62, 6-(7-methoxycarbonylbenzoxazol-2-ylthio)-N-(2,4,6-trimethoxyphenyl)hexanamide]: the melting point is 136 to 138 °C.

The compound `COC(=O)c1ccc2nc(SCCCCCC(=O)Nc3c(C(C)C)cccc3C(C)C)[nH]c2c1` [Example 63, 6-(5-methoxycarbonylbenzimidazol-2-ylthio)-N-(2,6-diisopropylphenyl)hexanamide] displayed a melting point of 190 to 192 °C.

As to `CC(C)c1cccc(C(C)C)c1NC(=O)CCCCCSc1ncc[nH]1` [Example 68, 6-(imidazol-2-ylthio)-N-(2,6-diisopropylphenyl)hexanamide], the melting point was 190 to 191 °C. `CC(C)c1cccc(C(C)C)c1NC(=O)CCCCCSc1nc2cccc(C(F)(F)F)c2o1` [Example 74, 6-(7-trifluoromethylbenzoxazol-2-ylthio)-N-(2,6-diisopropylphenyl)hexanamide] showed a melting point of 130 °C.

`CCOC(=O)c1cccc2nc(SCCCCCC(=O)Nc3c(C(C)C)cccc3C(C)C)oc12` [Example 79, 6-(7-ethoxycarbonylbenzoxazol-2-ylthio)-N-(2,6-diisopropylphenyl)hexanamide] gave a melting point of 114 to 116 °C. Regarding `COC(=O)c1c(O)ccc2nc(SCCCCCC(=O)Nc3c(C(C)C)cccc3C(C)C)oc12` [Example 91, 6-[6-hydroxy-7-methoxycarbonylbenzoxazol-2-ylthio)-N-(2,6-diisopropylphenyl)hexanamide], the melting point was in the range of 155 to 156 °C.
